Measurements as given in paper doi:10.1101/866475v1, “α1A-adrenoceptor inverse agonists and agonists modulate receptor signalling through a conformational selection mechanism” (biorxiv, 2019).

Key:
WT α1A-AR = biological target: T1, WT α1A-AR (Homo sapiens, UniProt P35348); assay type: cell-based; settings: inverse agonist; 100 nM
T1 construct: gene ADRA1A; wild type, pcDNA3.1, expressed in COS-7 cells
T1 sequence (P35348 1-466): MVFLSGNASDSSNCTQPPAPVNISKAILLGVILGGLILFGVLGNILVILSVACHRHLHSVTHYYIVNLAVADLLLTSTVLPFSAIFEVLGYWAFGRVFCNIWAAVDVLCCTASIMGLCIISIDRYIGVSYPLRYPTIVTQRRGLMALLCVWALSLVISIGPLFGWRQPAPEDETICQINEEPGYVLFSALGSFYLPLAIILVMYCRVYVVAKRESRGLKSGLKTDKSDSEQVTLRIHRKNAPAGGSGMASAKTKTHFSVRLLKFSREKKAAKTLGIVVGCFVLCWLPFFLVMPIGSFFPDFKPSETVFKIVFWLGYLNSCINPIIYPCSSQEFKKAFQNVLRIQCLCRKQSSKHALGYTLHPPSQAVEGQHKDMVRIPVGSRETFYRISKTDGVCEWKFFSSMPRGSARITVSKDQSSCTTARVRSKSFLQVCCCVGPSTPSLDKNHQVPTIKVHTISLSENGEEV

[1] = biological target: T2, α1A-AR-A4 (and its variants α1A-AR-A4 (L312F), α1A-AR-A4-active) (Homo sapiens, UniProt P35348, C14S/T15I/L36I/I65V/N67Y/L80M/F86Y/G127A/G143A/W151F/E171V/F312L/N322K/P327L/S329Y); assay: QAPB competition binding, purified immobilised receptor (KingFisher); settings: 10 nM QAPB, 20 mM HEPES pH 7.5, 100 mM NaCl, 0.02% DDM, 22 °C, 2 h
T2 construct: gene ADRA1A; thermostabilised, C-terminus truncated at Ser351 plus A and His10
T2 sequence (P35348 2-351 C14S/T15I/L36I/I65V/N67Y/L80M/F86Y/G127A/G143A/W151F/E171V/F312L/N322K/P327L/S329Y): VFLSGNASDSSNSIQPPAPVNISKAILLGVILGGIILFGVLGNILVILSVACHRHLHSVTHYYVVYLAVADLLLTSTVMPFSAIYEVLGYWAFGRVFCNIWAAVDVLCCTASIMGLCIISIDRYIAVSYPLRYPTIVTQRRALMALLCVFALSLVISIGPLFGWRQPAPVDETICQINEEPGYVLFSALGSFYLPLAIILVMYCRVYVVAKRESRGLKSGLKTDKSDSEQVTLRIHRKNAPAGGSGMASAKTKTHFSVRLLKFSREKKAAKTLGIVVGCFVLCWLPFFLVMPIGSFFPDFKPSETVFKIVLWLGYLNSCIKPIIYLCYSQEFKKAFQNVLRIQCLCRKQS

## COc1cc2nc(N3CCN(C(=O)c4ccco4)CC3)nc(N)c2cc1OC [Prazosin]
WT α1A-AR
  NanoBiT Gq split-luciferase assay, COS-7: inverse agonism of prazosin, WB-4101, phentolamine and silodosin at WT α1A-AR-expressing COS-7 cells

## COc1cccc(OC)c1OCCNCC1COc2ccccc2O1 (stereo not drawn) [WB-4101]
[1]
  Ki: 7.6 ± 3.4 nM

## C[C@H](Cc1cc2c(c(C(N)=O)c1)N(CCCO)CC2)NCCOc1ccccc1OCC(F)(F)F [Silodosin]
[1]
  Ki: 8.4 ± 1.9 nM
